Experimental data: publication PMC11823594, “Durlobactam in combination with β-lactams to combat Mycobacterium abscessus” (Antimicrobial Agents and Chemotherapy, 2024)
≈ marks a conversion by molar mass, not a printed value. Like-named read-outs stand apart in the source and are kept apart here.

Columns and labels:
[1] = system: Mycobacterium abscessus ATCC 19977 strain; assay: Morphological changes by flow cytometry and confocal microscopy; assay type: cell-based; details: clinically relevant unbound concentrations (fCss,ave), 24 h
Protocol: Flow cytometry was employed to evaluate morphological changes in individual bacterial cells following PBP-lipo inactivation after 24 h of β-lactam treatment. The bacterial cells were stained using the BacLight kit L7012 (Thermo Fisher Scientific, Waltham, MA), containing SYTO 9 and propidium iodide (PI). Analysis was performed using a CytoFLEX flow cytometer (Beckman Coulter, CA), with data processed using CytExpert software.
Bacterial morphological changes resulting from PBP-lipo inactivation were investigated using an ImageXpress Micro Confocal Microscope (Molecular Devices, CA). The staining procedures applied to the samples mirrored those used for flow cytometry. Stained bacterial cells were placed in optically clear flat-bottom 96-well plates, and observations were conducted at 60× magnification. Cell length measurements were obtained through automated image analysis using MetaXpress 6 software.

PBP B = PBP B (Mycobacterium abscessus, UniProt B1MP31); assay: Steady-state kinetics with nitrocefin (Ki,app); assay type: biochemical; details: for Ratio of fCss,avg to Ki,app, PBP B: in parentheses in Table 3;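 for Ratio of fCss,avg to Ki,app, PBP B: Parenthesised value is the fCss,avg to Ki,app ratio where above 1 means target likely hit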
Protocol: (§1) Steady-state kinetic studies were conducted using purified LDTs and PBPs (LDT1-5, PBP B, PBP-lipo, and DDC) as previously described ([20]). The assays were performed using a BioTek Synergy2 multimode reader in conjunction with Gen5 analysis software. […] To determine reaction velocities, a 0.25 cm path length was employed. The steady-state kinetic parameters (Vmax, kcat, and Km) were obtained by fitting the data to the Henri-Michaelis-Menten equation using a nonlinear least-squares fit in Origin 8.1 software (OriginLab, Northampton, MA). The reaction rate (v) at a given substrate concentration ([S]) was calculated according to the following equations: […]
(§2) Changes in absorbance at 482 nm were measured over a period of 0–30 min for each concentration of β-lactams and BLIs. Data were linearized using a Dixon plot, plotting the inverse changes in absorbance (1/ΔA) against the concentrations of β-lactams and BLIs. The observed Ki,app was determined directly from the Dixon plot, and these values were corrected for substrate concentration and affinity for the LDT using the following equation:
(§3) Ki,app=observed Ki,app/1+[NCF]/Km NCF

Mab ATCC 19977 strain = assay: MIC testing (CLSI, Middlebrook 7H9 broth); assay type: cell-based, Mycobacterium abscessus; details: for MIC: Mycobacteroides abscessus, ATCC19977, Mab ATCC 19977, no BLI added, 30°C, 48 h, read-out: MIC, alone; for MIC, + DUR + SUL (1:1): durlobactam, sulbactam and test β-lactam all at the same concentration; for MIC, + AVI (4 mg/L): fixed avibactam 4 mg/L; for MIC, + DUR + SUL (1 mg/L): fixed durlobactam 1 mg/L + sulbactam 1 mg/L
[2] = Predicted average unbound steady-state plasma concentration (fCss,avg) at clinically relevant doses; set-up: species or system human; details: median unbound average steady-state plasma concentration, continuous infusion; daily dose DUR 4,000, AVI 1,500, IPM 4,000, CFT 1,800, AMX 1,500, SULO 1,000, CXM 1,500, SUL 4,000, TBP 1,800 mg
DDC = DDC (Mycobacteroides abscessus, UniProt B1MDJ1); assay: Steady-state kinetics with nitrocefin (Ki,app); assay type: biochemical; details: in parentheses in Table 3;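 note: Parenthesised value is the fCss,avg to Ki,app ratio where above 1 means target likely hit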
Protocol: as §1, §2, §3

LDT4 = LDT4 (Mycobacterium abscessus, UniProt B1MKW1); assay: Steady-state kinetics with nitrocefin (Ki,app); assay type: biochemical; details: in parentheses in Table 3
Protocol: (§4) Steady-state kinetic studies were conducted using purified LDTs and PBPs (LDT1-5, PBP B, PBP-lipo, and DDC) as previously described ([20]). The assays were performed using a BioTek Synergy2 multimode reader in conjunction with Gen5 analysis software. Increasing concentrations of NCF (Δε482 = 17,400 M^⁻¹ cm^⁻¹) were used, while fixed concentrations of the LDTs and PBPs were monitored for changes in absorbance at 482 nm over a time period of 0 to 10 min. To determine reaction velocities, a 0.25 cm path length was employed. The steady-state kinetic parameters (Vmax, kcat, and Km) were obtained by fitting the data to the Henri-Michaelis-Menten equation using a nonlinear least-squares fit in Origin 8.1 software (OriginLab, Northampton, MA). The reaction rate (v) at a given substrate concentration ([S]) was calculated according to the following equations: […]
as §2, with “To determine the apparent inhibition constants (Ki,app) for β-lactams and BLIs, the following experimental condition was employed: NCF as a substrate at a concentration of 5 × Km, LDT/ PBP enzymes with fixed concentration, and β-lactams and BLIs with various concentrations. Changes” for “Changes”
as §3

LDT1 = LDT1 (Mycobacterium abscessus, UniProt B1MDC1); assay: Steady-state kinetics with nitrocefin (Ki,app); assay type: biochemical; details: for Ki: Ki,app LDT1, nitrocefin at 5 × Km; for Ratio of fCss,avg to Ki,app, LDT1: in parentheses in Table 3
Protocol: as §4
as §2, with “To determine the apparent inhibition constants (Ki,app) for β-lactams and BLIs, the following experimental condition was employed: NCF as a substrate at a concentration of 5 × Km, LDT/ PBP enzymes with fixed concentration, and β-lactams and BLIs with various concentrations. Changes” for “Changes”
as §3

LDT2 = LDT2 (Mycobacterium abscessus, UniProt B1MMQ4); assay: Steady-state kinetics with nitrocefin (Ki,app); assay type: biochemical; details: for Ki: Ki,app LDT2, nitrocefin at 5 × Km; for Ratio of fCss,avg to Ki,app, LDT2: in parentheses in Table 3
Protocol: as §4
as §2, with “To determine the apparent inhibition constants (Ki,app) for β-lactams and BLIs, the following experimental condition was employed: NCF as a substrate at a concentration of 5 × Km, LDT/ PBP enzymes with fixed concentration, and β-lactams and BLIs with various concentrations. Changes” for “Changes”
as §3

[3] = nitrocefin at 5 × Km, read-out: Ki,app PBP B (converted)
[4] = read-out: Ki,app PBP B (converted)

Chain of DDC (B1MDJ1 entry or part of it): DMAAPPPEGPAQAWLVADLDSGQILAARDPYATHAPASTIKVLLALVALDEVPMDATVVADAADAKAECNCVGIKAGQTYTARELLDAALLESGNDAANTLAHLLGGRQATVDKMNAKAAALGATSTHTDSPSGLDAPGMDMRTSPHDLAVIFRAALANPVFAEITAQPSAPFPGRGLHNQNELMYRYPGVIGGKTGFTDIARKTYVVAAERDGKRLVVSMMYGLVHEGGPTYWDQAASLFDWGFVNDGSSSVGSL
Chain of PBP B (B1MP31 entry or part of it): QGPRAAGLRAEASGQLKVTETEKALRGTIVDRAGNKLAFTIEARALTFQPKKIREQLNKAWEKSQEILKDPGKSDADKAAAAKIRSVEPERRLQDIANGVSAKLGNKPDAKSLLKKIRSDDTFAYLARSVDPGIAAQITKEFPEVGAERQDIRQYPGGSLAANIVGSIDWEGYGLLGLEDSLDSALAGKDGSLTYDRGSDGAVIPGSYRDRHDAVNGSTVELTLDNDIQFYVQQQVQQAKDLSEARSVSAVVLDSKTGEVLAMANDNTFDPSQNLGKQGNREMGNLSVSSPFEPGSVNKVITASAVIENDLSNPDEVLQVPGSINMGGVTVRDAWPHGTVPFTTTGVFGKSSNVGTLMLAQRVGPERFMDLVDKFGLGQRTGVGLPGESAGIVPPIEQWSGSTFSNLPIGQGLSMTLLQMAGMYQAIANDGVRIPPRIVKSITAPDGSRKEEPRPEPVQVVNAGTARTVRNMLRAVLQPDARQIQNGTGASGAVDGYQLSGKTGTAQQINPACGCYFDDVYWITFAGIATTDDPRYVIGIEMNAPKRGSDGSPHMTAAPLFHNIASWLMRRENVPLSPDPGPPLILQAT
Chain of LDT4 (B1MKW1 entry or part of it): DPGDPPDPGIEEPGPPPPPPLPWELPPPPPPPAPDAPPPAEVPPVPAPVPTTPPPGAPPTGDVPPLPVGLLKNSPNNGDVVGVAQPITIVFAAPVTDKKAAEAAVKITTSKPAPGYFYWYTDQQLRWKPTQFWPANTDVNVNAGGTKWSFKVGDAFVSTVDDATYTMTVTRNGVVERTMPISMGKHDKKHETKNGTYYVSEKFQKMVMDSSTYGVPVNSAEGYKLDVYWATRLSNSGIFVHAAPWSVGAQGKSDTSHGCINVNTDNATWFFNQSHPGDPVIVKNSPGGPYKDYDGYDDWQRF
Chain of LDT1 (B1MDC1 entry or part of it): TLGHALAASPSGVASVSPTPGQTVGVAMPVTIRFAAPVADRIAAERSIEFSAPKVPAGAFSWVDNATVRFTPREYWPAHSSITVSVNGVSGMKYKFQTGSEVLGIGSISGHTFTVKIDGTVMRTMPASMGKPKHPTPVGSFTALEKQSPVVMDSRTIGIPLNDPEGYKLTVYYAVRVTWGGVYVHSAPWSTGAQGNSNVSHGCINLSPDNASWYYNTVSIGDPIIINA
Chain of LDT2 (B1MMQ4 entry or part of it): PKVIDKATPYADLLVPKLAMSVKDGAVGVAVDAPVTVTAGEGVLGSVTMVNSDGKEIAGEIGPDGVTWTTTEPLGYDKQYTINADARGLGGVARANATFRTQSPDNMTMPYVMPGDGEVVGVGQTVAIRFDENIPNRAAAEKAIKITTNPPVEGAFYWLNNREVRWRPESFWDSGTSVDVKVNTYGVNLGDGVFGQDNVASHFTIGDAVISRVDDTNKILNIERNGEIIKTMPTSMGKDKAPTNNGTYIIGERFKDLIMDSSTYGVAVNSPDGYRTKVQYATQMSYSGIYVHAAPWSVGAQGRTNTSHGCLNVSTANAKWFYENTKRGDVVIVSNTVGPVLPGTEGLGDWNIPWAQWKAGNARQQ

| Structure (SMILES) | Morphological change of Mab cells [1] | Ki (PBP B) [µM] | MIC (Mab ATCC 19977 strain) [µg/mL] | MIC, + DUR + SUL (1:1) (Mab ATCC 19977 strain) [µg/mL] | MIC, + AVI (4 mg/L) (Mab ATCC 19977 strain) [µg/mL] | MIC, + DUR + SUL (1 mg/L) (Mab ATCC 19977 strain) [µg/mL] | fCss,avg [2] [mg/L] | Ratio of fCss,avg to Ki,app, DDC (DDC) | Ratio of fCss,avg to Ki,app, PBP B (PBP B) | Ki (PBP B; [3]) [µM] | Ratio of fCss,avg to Ki,app, LDT4 (LDT4) | Ki (LDT1) [µM] | Ratio of fCss,avg to Ki,app, LDT1 (LDT1) | Ki (LDT2) [µM] | Ratio of fCss,avg to Ki,app, LDT2 (LDT2) | Ki (PBP B; [4]) [µM] |
| --- | --- | --- | --- | --- | --- | --- | --- | --- | --- | --- | --- | --- | --- | --- | --- | --- |
| CC1(C)S[C@@H]2[C@H](NC(=O)[C@H](N)c3ccc(O)cc3)C(=O)N2[C@H]1C(=O)O [Amoxicillin, amoxicillin] | does not induce any morphological changes | 7.39 | 128 (≈ 350 µM) | 1 | 32 | 1 | 6 | – | – | – | – | – | – | – | – | – |
| NC(=O)[C@@H]1CC[C@@H]2CN1C(=O)N2OS(=O)(=O)O [Avibactam, avibactam] | did not induce noticeable morphological changes | – | > 128 | – | – | – | 5 | 0.1 | 0.6 | 33.9 | < 0.02 | 26.4 | 0.7 | 1.7 | 11 | – |
| CO/N=C(\C(=O)N[C@@H]1C(=O)N2C(C(=O)O)=C(COC(N)=O)CS[C@H]12)c1ccco1 [Cefuroxime, cefuroxime] | did not induce noticeable morphological changes | – | 4 (≈ 9.43 µM) | 1 | 4 | 2 | 12 | 0.05 (240) | 3 (4) | – | – | – | – | 1.18 | 24 | 7.07 |
| CC1=C[C@@H]2CN(C(=O)N2OS(=O)(=O)O)[C@@H]1C(N)=O [Durlobactam, durlobactam] | filamentous shapes with an elongated cell length | – | – | – | – | – | 16 | 1.6 | 1 | 57.7 | 6 | 418 | 0.1 | – | – | – |
| C[C@@H](O)[C@H]1C(=O)N2C(C(=O)O)=C(SCCN=CN)C[C@H]12 [Imipenem, imipenem] | filamentous shapes with an elongated cell length | – | 8 (≈ 26.7 µM) | 2 | 4 | 4 | 12 | 1.3 (9) | 0.4 (27) | – | 3 | 0.00668 | 5714 | 0.00668 | 6667 | 1.34 |
| C[C@@H](O)[C@H]1C(=O)N2C(C(=O)O)=C(S[C@H]3CC[S@@+]([O-])C3)S[C@H]12 [Sulopenem, sulopenem] | filamentous shapes with an elongated cell length | – | 1 (≈ 2.86 µM) | 0.25 | 0.5 | 1 | 2 | 0.1 | 0.7 | 8.3 | 1.1 | – | – | 0.2 | 29 | – |
| C[C@@H](O)[C@H]1C(=O)N2C(C(=O)O)=C(SC3CN(C4=NCCS4)C3)[C@H](C)[C@H]12 [Tebipenem, tebipenem] | – | – | 8 (≈ 20.9 µM) | 1 | 2 | 1 | 1.7 | 0.01 | 243 | 0.0183 | 2.4 | 4.95 | 0.9 | 0.0261 | 170 | – |
